Measured values: US6825209B2, “Compounds having unique CB1 receptor binding selectivity and methods for their production and use” (Research Triangle Institute, priority 2002, dated 2004)
“And” between values parts separate entries of the source, which are not always exact repeats. Identical values can stand only once. Like-named read-outs stand apart in the source and are kept apart here.

What was measured:
cannabinoid receptors = molecular target: T1, cannabinoid receptors (Mus musculus, UniProt P47746); test: Mouse vas deferens tissue assay (WIN55212-2 as agonist); details: for % Inverse Effect: in the absence of WIN55212-2; for Dextral Shift: shift of the WIN55212-2 dose response curve
T1 construct: mediated by cannabinoid receptors located on prejunctional neurones; from tissue; host or cells: mouse isolated vas deferens
Source text: Pharmacological characterization in isolated mouse vas deferens.
Introduction. The mouse isolated vas deferens can be used to determine both the potency and efficacy (maximum degree of inhibition produced) of cannabinoid receptor agonists. Because of its high sensitivity, this assay usually requires only microgram quantities of test material.
The inhibitory effect of cannabinoids on electrically evoked contractions is thought to be mediated by cannabinoid receptors located on prejunctional neurones rather than on the smooth muscle.
Experimental design. Isolated mouse vasa deferentia were used to determine the potency and efficacy of test compounds as inhibitors of electrically evoked contractions. […] Ability to antagonize was expressed in terms of the association constant (Kb) for the forward reaction between antagonist and cannabinoid receptors.
Methods. […] Electrical field stimulation was between platinum electrodes located at the upper and lower ends of each bath. The stimuli were generated by a Grass S48 stimulator, then amplified (Med-Lab channel attenuator) and finally divided to yield separate outputs to four organ baths (Med-Lab Stimusplitter). All contractions were recorded isometrically.
Concentration-response curves were constructed cumulatively.

CB1 receptor = molecular target: T2, CB1 receptor (Rattus norvegicus, UniProt P20272); test: Radioligand displacement in whole rat brain (CB1) membrane preparations; assay type: binding; details: Tables 1 and 2
T2 construct: Whole rat brains or dissected regions from live CD rats; tissue Charles River or Pel-Freez Biologicals; host or cells: whole rat brain (CD rats), P2 membrane
In short: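 Washed P2 membranes from whole rat brain (ca. 0.2 mg/mL) in 50 mM Tris.HCl, 1 mM EDTA, 3 mM MgCl2, pH 7.4 were incubated with radioligand and compound for 1 h at 30 °C, then filtered. IC50 values came from one- or two-site nonlinear fits and were converted to Ki by Cheng-Prusoff. Duplicates were run across 3–6 experiments.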

human CB2 receptor = molecular target: T3, human CB2 receptor (Homo sapiens, UniProt P34972); test: Displacement of 3H-CP55,940 in human CB2 receptor-transfected cells (CHO-K1); assay type: binding; details: radioligand 3H-CP55940, Tables 6 and 7
T3 construct: expressed in transfected cells; host or cells: CHO-K1
In short: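 CB2 receptor expressed in CHO-K1 cells; [3H]-CP55,940 displacement with incubation and separation as for rat brain membranes.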

CB1 versus CB2 receptors = test: Relative selectivity of the analogs for CB1 versus CB2 receptors; details: CB1 versus CB2 binding, Tables 1, 6 and 7
Source text: Human CB2 receptor affinity. The relative selectivity of the analogs for CB1 versus CB2 receptors varied modestly regardless of the structural modifications examined to date.

[1] = isolated mouse vas deferens, WIN55212-2 as agonist, Schild equation, read-out: Kb
[2] = read-out: Ki, displacement of 3H-CP55940, whole rat brain membranes, radioligand 3H-CP55940
[3] = read-out: Ki, displacement of 3H-SR141716A, whole rat brain membranes, radioligand 3H-SR141716A
[4] = whole rat brain membranes, radioligand 3H-CP55940
[5] = whole rat brain membranes, radioligand 3H-SR141716A
[6] = read-out: Ki, displacement of 3H-CP55940, human CB2 transfected cells
[7] = Ki, displacement of 3H-WIN55212-2, whole rat brain membranes, radioligand 3H-WIN55212-2
[8] = whole rat brain membranes, radioligand 3H-WIN55212-2

T1 sequence (P47746 whole entry): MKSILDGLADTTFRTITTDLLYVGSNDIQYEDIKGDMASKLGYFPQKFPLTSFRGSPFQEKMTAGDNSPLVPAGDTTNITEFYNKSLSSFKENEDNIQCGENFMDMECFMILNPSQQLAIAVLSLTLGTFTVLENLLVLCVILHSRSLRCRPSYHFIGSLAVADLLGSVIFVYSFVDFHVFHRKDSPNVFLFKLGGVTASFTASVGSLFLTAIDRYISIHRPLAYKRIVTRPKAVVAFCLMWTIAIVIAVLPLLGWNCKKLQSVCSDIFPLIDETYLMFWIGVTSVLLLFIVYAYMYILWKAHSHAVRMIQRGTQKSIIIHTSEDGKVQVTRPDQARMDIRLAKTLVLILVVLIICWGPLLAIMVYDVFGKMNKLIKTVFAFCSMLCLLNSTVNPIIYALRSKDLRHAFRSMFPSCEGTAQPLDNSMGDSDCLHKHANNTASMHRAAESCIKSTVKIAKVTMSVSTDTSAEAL
T3 sequence (P34972 whole entry): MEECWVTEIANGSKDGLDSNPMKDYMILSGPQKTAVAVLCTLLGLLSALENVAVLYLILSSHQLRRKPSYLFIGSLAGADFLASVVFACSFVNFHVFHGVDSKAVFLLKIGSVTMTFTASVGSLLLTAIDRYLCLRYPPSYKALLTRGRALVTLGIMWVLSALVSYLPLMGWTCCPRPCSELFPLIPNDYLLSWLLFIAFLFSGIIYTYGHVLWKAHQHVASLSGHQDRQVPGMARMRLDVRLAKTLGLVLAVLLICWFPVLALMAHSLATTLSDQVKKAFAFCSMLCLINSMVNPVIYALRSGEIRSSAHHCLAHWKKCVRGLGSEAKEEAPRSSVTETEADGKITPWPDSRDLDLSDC
T2 sequence (P20272 whole entry): as the sequence (P47746 whole entry) above, with D95E counted along it

| Structure (SMILES) | Kb (cannabinoid receptors; [1]) [nM] | % Inverse Effect (cannabinoid receptors; isolated mouse vas deferens) | Dextral Shift (cannabinoid receptors; isolated mouse vas deferens) | Ki (CB1 receptor; [2]) [nM] | Ki (CB1 receptor; [3]) [nM] | Max. Disp. %, 3H-CP55940 (CB1 receptor; [4]) [%] | Max. Disp. %, 3H-SR141716A (CB1 receptor; [5]) [%] | Max. Disp. %, 3H-CP55940 (human CB2 receptor; human CB2 transfected cells) [%] | Ki (human CB2 receptor; [6]) [nM] | Ki (CB1 receptor; [7]) [nM] | Max. Disp. %, 3H-WIN55212-2 (CB1 receptor; [8]) [%] | CB1 selectivity (CB1 versus CB2) (CB1 versus CB2 receptors) [fold] | Kb (cannabinoid receptors) [nM] | Kb (cannabinoid receptors; isolated mouse vas deferens, WIN55212-2 as agonist, Schild equation) | Dextral Shift (cannabinoid receptors; isolated mouse vas deferens, listed as heptyl analog) | Ki (CB1 receptor; Ki, displacement of 3H-CP55940, whole rat brain membranes, radioligand 3H-CP55940) [nM] | Ki (CB1 receptor; Ki, displacement of 3H-SR141716A, whole rat brain membranes, radioligand 3H-SR141716A) [nM] | Ki (human CB2 receptor; Ki, displacement of 3H-CP55940, human CB2 transfected cells) [nM] |
| --- | --- | --- | --- | --- | --- | --- | --- | --- | --- | --- | --- | --- | --- | --- | --- | --- | --- | --- |
| Cc1c(C(=O)NN2CCOCC2)nn(-c2ccc(Cl)cc2Cl)c1-c1ccc(Cl)cc1 [MF9725-33D] | 12.5 | 82.5% | 26.3 | 22.9 | 21 | 96.2 | 100 | 54.5 | 2400 | – | – | – | – | – | – | – | – | – |
| CCCCNC(=O)c1nn(-c2ccc(Cl)cc2Cl)c(-c2ccc(Cl)cc2)c1C [MF9725-64-17] | 21.2 | 28.2% | no effect | 13.4 | 12.8 | 91.9 | 100 | 75.6 | 1600 | 32.8 | 90.8 | – | – | – | – | – | – | – |
| Cc1c(C(=O)NC(C)C)nn(-c2ccc(Cl)cc2Cl)c1-c1ccc(Cl)cc1 [MF9725-65-11] | – | – | – | 29.4 | 12.9 | 88.3 | 100 | 68.3 | 1740 | 36.1 | 90.6 | – | – | – | – | – | – | – |
| Cc1c(C(=O)NC2CCCCC2)nn(-c2ccc(Cl)cc2Cl)c1-c1ccc(Cl)cc1 [MF9725-66-11] | 1.2 | 55.5% | 26.7 | 2.46 | 1.07 | 96.1 | 100 | 84.5 | 228 | 2.23 | 92.6 | 93 | – | – | – | – | – | – |
| Cc1c(C(=O)NCC(C)C)nn(-c2ccc(Cl)cc2Cl)c1-c1ccc(Cl)cc1 [MF9725-68-10] | – | – | – | 11.5 | 9.22 | 96.7 | 100 | 80.0 | 704 | 46.4 | 90.9 | – | – | – | – | – | – | – |
| CCCCCCNC(=O)c1nn(-c2ccc(Cl)cc2Cl)c(-c2ccc(Cl)cc2)c1C [MF9725-132-25] | 15.4 | 30.1% | no effect | 18.2 | 10.7 | 87.3 | 98.6 | 66.9 | 6870 | 16.6 | 77.9 | – | – | – | – | – | – | – |
| CCCCCCCNC(=O)c1nn(-c2ccc(Cl)cc2Cl)c(-c2ccc(Cl)cc2)c1C [MF9725-133-25] | – | 50.6% and 37.8% | – | – | – | 81.7 | 97.9 | 47.8 | – | 28.8 | 69.6 | – | 83.9 | no effect | failed to produce an effect | 46.2 | 19 | 4030 |
